In PubChem BioAssay (NCI):
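Interpolation was linear, between the two tested concentrations surrounding the appropriate level; five concentrations were tested over 48 hours in 96-well plates. GI50: concentration for 50% inhibition of growth. TGI is the concentration that stops growth completely.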

Assays:
Assay in all cases: DTP human tumour cell line panel, 48 h
[1] = tested on: NCI-H23 lung
[2] = tested on: UACC-62 melanoma
[3] = tested on: HCT-15 colon
[4] = tested on: NCI/ADR-RES ovarian
[5] = tested on: HOP-92 NSCLC
[6] = tested on: HCT-116 colon
[7] = tested on: A498 renal
[8] = tested on: SF-539 CNS
[9] = tested on: MDA-MB-231 breast
[10] = tested on: SNB-75 CNS
[11] = tested on: HS 578T breast
[12] = tested on: HOP-62 NSCLC
[13] = tested on: CAKI-1 renal
[14] = tested on: OVCAR-3 ovarian
[15] = tested on: OVCAR-8 ovarian
[16] = tested on: SR leukemia
[17] = tested on: SNB-19 CNS
[18] = tested on: 786-0 renal
[19] = tested on: SW-620 colon
[20] = tested on: UACC-257 melanoma
[21] = tested on: MCF7 breast
[22] = tested on: OVCAR-4 ovarian
[23] = tested on: SF-268 CNS
[24] = tested on: RXF 393 renal
[25] = tested on: PC-3 prostate
[26] = tested on: EKVX NSCLC
[27] = tested on: SK-MEL-5 melanoma
[28] = tested on: BT-549 breast
[29] = tested on: COLO 205 colon
[30] = tested on: RPMI-8226 leukemia
[31] = tested on: SF-295 CNS
[32] = tested on: NCI-H522 lung
[33] = tested on: LOX IMVI melanoma
[34] = tested on: HL-60(TB) leukemia
[35] = tested on: ACHN renal
[36] = tested on: K-562 leukemia
[37] = tested on: KM12 colon
[38] = tested on: MOLT-4 leukemia
[39] = tested on: IGROV1 ovarian
[40] = tested on: HT29 colon
[41] = tested on: T-47D breast
[42] = tested on: OVCAR-5 ovarian
[43] = tested on: MDA-MB-435
[44] = tested on: UO-31 renal
[45] = tested on: A549 NSCLC
[46] = tested on: SK-OV-3 ovarian
[47] = tested on: SK-MEL-2 melanoma
[48] = tested on: MALME-3M melanoma
[49] = tested on: SK-MEL-28 melanoma
[50] = tested on: HCC-2998 colon
[51] = tested on: U251 CNS
[52] = tested on: DU-145 prostate
[53] = tested on: SN12C renal
[54] = tested on: M14 melanoma
[55] = tested on: TK-10 renal
[56] = tested on: NCI-H226 lung
[57] = tested on: NCI-H460 lung
[58] = tested on: CCRF-CEM leukemia

**Q.** Which GI50 [1] does the source give for `O=C1c2cccnc2C(=O)c2nc3cc(N4CCN(C5CC5)CC4)ccc3nc21` here?
**A.** 0.229 µM

**Q.** What about the TGI [1] of the same compound?
**A.** 0.85 µM

**Q.** And the GI50 [2]?
**A.** 0.222 µM

**Q.** And the TGI [2]?
**A.** 0.631 µM

**Q.** And the GI50 [3]?
**A.** 0.257 µM

**Q.** And the TGI [3]?
**A.** 1.28 µM

**Q.** What about the GI50 [4] of the same compound?
**A.** 1.95 µM

**Q.** And the TGI [4]?
**A.** 8.14 µM

**Q.** What about the GI50 [5] of the same compound?
**A.** 2.93 µM

**Q.** What about the TGI [5] of the same compound?
**A.** 9.95 µM

**Q.** And the GI50 [6]?
**A.** 0.789 µM

**Q.** And the TGI [6]?
**A.** 7.12 µM

**Q.** And the GI50 [7]?
**A.** 1.34 µM

**Q.** What about the TGI [7] of the same compound?
**A.** 2.91 µM

**Q.** What about the GI50 [8] of the same compound?
**A.** 0.442 µM

**Q.** What about the TGI [8] of the same compound?
**A.** 1.66 µM

**Q.** What about the GI50 [9] of the same compound?
**A.** 2.15 µM

**Q.** And the TGI [9]?
**A.** 8.08 µM

**Q.** What about the GI50 [10] of the same compound?
**A.** 0.147 µM

**Q.** What about the TGI [10] of the same compound?
**A.** 1.37 µM

**Q.** What about the GI50 [11] of the same compound?
**A.** 0.37 µM

**Q.** What about the TGI [11] of the same compound?
**A.** 3.18 µM

**Q.** And the GI50 [12]?
**A.** 0.232 µM

**Q.** What about the TGI [12] of the same compound?
**A.** 1.05 µM

**Q.** What about the GI50 [13] of the same compound?
**A.** 0.439 µM

**Q.** What about the TGI [13] of the same compound?
**A.** 3.05 µM

**Q.** And the GI50 [14]?
**A.** 1.24 µM

**Q.** And the TGI [14]?
**A.** 3.67 µM

**Q.** And the GI50 [15]?
**A.** 1.68 µM

**Q.** What about the TGI [15] of the same compound?
**A.** 11.2 µM

**Q.** What about the GI50 [16] of the same compound?
**A.** 0.322 µM

**Q.** And the TGI [16]?
**A.** > 20.1 µM

**Q.** What about the GI50 [17] of the same compound?
**A.** 0.465 µM

**Q.** And the TGI [17]?
**A.** 3.63 µM

**Q.** What about the GI50 [18] of the same compound?
**A.** 1.38 µM

**Q.** And the TGI [18]?
**A.** 4 µM

**Q.** And the GI50 [19]?
**A.** 0.409 µM

**Q.** What about the TGI [19] of the same compound?
**A.** 1.94 µM

**Q.** And the GI50 [20]?
**A.** 0.479 µM

**Q.** What about the TGI [20] of the same compound?
**A.** 1.98 µM

**Q.** And the GI50 [21]?
**A.** 0.276 µM

**Q.** What about the TGI [21] of the same compound?
**A.** 1.78 µM

**Q.** And the GI50 [22]?
**A.** 1.27 µM

**Q.** What about the TGI [22] of the same compound?
**A.** 2.55 µM

**Q.** What about the GI50 [23] of the same compound?
**A.** 1.24 µM

**Q.** And the TGI [23]?
**A.** 4.93 µM

**Q.** What about the GI50 [24] of the same compound?
**A.** 0.607 µM

**Q.** What about the TGI [24] of the same compound?
**A.** 2.61 µM

**Q.** What about the GI50 [25] of the same compound?
**A.** 1.97 µM

**Q.** What about the TGI [25] of the same compound?
**A.** 23.2 µM

**Q.** What about the GI50 [26] of the same compound?
**A.** 1.68 µM

**Q.** What about the TGI [26] of the same compound?
**A.** 4.02 µM

**Q.** What about the GI50 [27] of the same compound?
**A.** 0.252 µM

**Q.** And the TGI [27]?
**A.** 0.686 µM

**Q.** What about the GI50 [28] of the same compound?
**A.** 1.04 µM

**Q.** And the TGI [28]?
**A.** 2.38 µM

**Q.** What about the GI50 [29] of the same compound?
**A.** 0.558 µM

**Q.** What about the TGI [29] of the same compound?
**A.** 2.34 µM

**Q.** And the GI50 [30]?
**A.** 2.4 µM

**Q.** And the TGI [30]?
**A.** 8.63 µM

**Q.** And the GI50 [31]?
**A.** 0.41 µM

**Q.** What about the TGI [31] of the same compound?
**A.** 1.59 µM

**Q.** And the GI50 [32]?
**A.** 0.238 µM

**Q.** What about the TGI [32] of the same compound?
**A.** 1.36 µM

**Q.** What about the GI50 [33] of the same compound?
**A.** 0.416 µM

**Q.** What about the TGI [33] of the same compound?
**A.** 1.86 µM

**Q.** What about the GI50 [34] of the same compound?
**A.** 2.37 µM

**Q.** What about the TGI [34] of the same compound?
**A.** 7.29 µM

**Q.** What about the GI50 [35] of the same compound?
**A.** 0.6 µM

**Q.** And the TGI [35]?
**A.** 4.34 µM

**Q.** What about the GI50 [36] of the same compound?
**A.** 0.522 µM

**Q.** What about the TGI [36] of the same compound?
**A.** > 20.7 µM

**Q.** And the GI50 [37]?
**A.** 1.25 µM

**Q.** What about the TGI [37] of the same compound?
**A.** 5.11 µM

**Q.** What about the GI50 [38] of the same compound?
**A.** 2.4 µM

**Q.** And the TGI [38]?
**A.** 5.62 µM

**Q.** What about the GI50 [39] of the same compound?
**A.** 0.808 µM

**Q.** What about the TGI [39] of the same compound?
**A.** 3.01 µM

**Q.** And the GI50 [40]?
**A.** 0.658 µM

**Q.** What about the TGI [40] of the same compound?
**A.** 4.96 µM

**Q.** And the GI50 [41]?
**A.** 2.16 µM

**Q.** And the TGI [41]?
**A.** 6.34 µM

**Q.** What about the GI50 [42] of the same compound?
**A.** 1.34 µM

**Q.** And the TGI [42]?
**A.** 3.07 µM

**Q.** And the GI50 [43]?
**A.** 0.169 µM

**Q.** And the TGI [43]?
**A.** 0.328 µM

**Q.** What about the GI50 [44] of the same compound?
**A.** 0.259 µM

**Q.** What about the TGI [44] of the same compound?
**A.** 1.92 µM

**Q.** And the GI50 [45]?
**A.** 0.213 µM

**Q.** And the TGI [45]?
**A.** 0.669 µM

**Q.** What about the GI50 [46] of the same compound?
**A.** 0.648 µM

**Q.** And the TGI [46]?
**A.** 2.89 µM

**Q.** And the GI50 [47]?
**A.** 1.61 µM

**Q.** And the TGI [47]?
**A.** 4.22 µM

**Q.** What about the GI50 [48] of the same compound?
**A.** 0.178 µM

**Q.** What about the TGI [48] of the same compound?
**A.** 0.457 µM

**Q.** And the GI50 [49]?
**A.** 0.567 µM

**Q.** And the TGI [49]?
**A.** 1.98 µM

**Q.** What about the GI50 [50] of the same compound?
**A.** 0.49 µM

**Q.** And the TGI [50]?
**A.** 1.83 µM

**Q.** And the GI50 [51]?
**A.** 0.383 µM

**Q.** And the TGI [51]?
**A.** 2.02 µM

**Q.** What about the GI50 [52] of the same compound?
**A.** 0.242 µM

**Q.** What about the TGI [52] of the same compound?
**A.** 0.833 µM

**Q.** What about the GI50 [53] of the same compound?
**A.** 0.519 µM

**Q.** And the TGI [53]?
**A.** 1.88 µM

**Q.** And the GI50 [54]?
**A.** 0.301 µM

**Q.** What about the TGI [54] of the same compound?
**A.** 1.18 µM

**Q.** What about the GI50 [55] of the same compound?
**A.** 2.19 µM

**Q.** What about the TGI [55] of the same compound?
**A.** 7.81 µM

**Q.** What about the GI50 [56] of the same compound?
**A.** 1.46 µM

**Q.** And the TGI [56]?
**A.** 4.08 µM

**Q.** And the GI50 [57]?
**A.** 0.137 µM

**Q.** What about the TGI [57] of the same compound?
**A.** 0.352 µM

**Q.** And the GI50 [58]?
**A.** 2.56 µM

**Q.** And the TGI [58]?
**A.** 9.83 µM
